One data set relates to patients with TRMD. The note with it: 50% nitrous oxide, one one-hour inhalation; cited from earlier work.
Data set [1] relates to patients with severe TRMD. The data set can be described thus: Same trial; treatment safety, monitoring of adverse events. The note with it: for Stomach virus: >24 hours after inhalation session, count (%). The source says: The study was a single-center, double-blind, randomized placebo-controlled crossover trial. All subjects underwent three one-hour inhalation sessions in random order, each separated by at least 4 weeks. The sessions included: placebo (0% N20), 25% N20, and 50% N20 balanced with air/oxygen. Blinding was executed by separating locations and teams for inhalation treatments and psychiatric evaluations. Only the anesthesia team administering the inhalation treatments was aware of study group assignment; all other participants, including patients and raters, were blinded. Likewise, the study setup was identical for all sessions, and gas flow meters were concealed, making inadvertent unblinding unlikely. The study was approved by the Washington University in St. Louis Institutional Review Board, and all patients provided written, informed consent. The trial was registered at clinicaltrials.gov (NCT03283670).
All three inhalation sessions were scheduled for one hour. […] Except for the choice of inhalational gas admixture, treatment sessions were otherwise identical. The gas mix was administered via a standard anesthesia facemask through tubing connected to the anesthesia machine or an FDA-approved Porter/Praxair MXR breathing circuit. A small sample connector line was inserted into the facemask allowing the measurement of inhaled and exhaled gas concentrations. […] Patients were monitored during and after the treatment according to American Society of Anesthesiologists standards which include continuous 3-lead ECG, pulse oximetry, non-invasive blood pressure, and end tidal CO2 measurement under the supervision of an attending-level anesthesiologist. After the one-hour treatment session, patients were monitored in a recovery room for up to one hour at which time a study team physician determined whether the patient met criteria for discharge.
Data were collected at (a) baseline (prior to each inhalation session), (b) 2-hours, (c) 24 hours, (d) 1 week, and (e) 2 weeks after inhalation. Efficacy of the inhalation treatment on mood was measured using the following: Hamilton Depression Rating Scale 21-item (HDRS-21; primary outcome); Montgomery-Asberg Depression Rating Scale (MADRS); Quick Inventory of Depressive Symptomology-Self Report (QIDS-SR); and the Profile of Mood States 2nd Edition (POMS-2). Other behavioral assessments included an assessment of dissociation, the Clinical Administered Dissociative States Scale 28-item (CADSS-28); and an assessment for the emergence of psychosis, the Brief Psychiatric Rating Scale 18-item (BPRS-18). These mood and behavioral assessments were performed by a blinded member of the psychiatry study team. Additionally, adequacy of the blind was assessed by a Blinding Questionnaire given after completion of each inhalation session. Treatment safety was assessed by monitoring adverse events (AEs) related to (a) cardiovascular status; (b) respiratory function; (c) central nervous system; and (d) psychiatric symptoms, particularly the presence of psychotic symptoms.
Finally, we also tested for a linear dose-response relation. Differences between categorical outcomes (response, remission) were tested by Fisher-Exact test; relative risk and 95% confidence intervals were calculated using the Koopman asymptotic score. Differences in the count of adverse events were compared by the Kruskal-Wallis test. All reported p-values are two-sided and a p-value of <0.05 was considered statistically significant. All analyses were conducted using SuperMix (Scientific Software International, Lincolnwood Ill.).

Entries after “also recorded” stand apart in the source; their conditions may differ.

`[N-]=[N+]=O` [nitrous oxide]: in the data set on patients with TRMD, the “Effect on depressive symptoms in patients with TRMD (earlier study)” value is “improved depressive symptoms; also recorded: rapid antidepressant effects”. Also, in data set [1] (25% N2O (n = 20)), the Stomach virus is reported as 0. Further, the Stomach virus in data set [1] (50% N2O (n = 23)) stood at 0. For the same compound, in data set [1] (human, in vivo), the “Car Crash (minor)” value is listed as 1 (4%), the “Fainting Spell” value is 1 (4%) and the Haziness is given as 3 (13%). For the same compound, the Haziness in data set [1] (human, in vivo, 1 h) was 1(5%). Besides, in data set [1] (in vivo), the Serious adverse events result is recorded as “None”.

These data come from patent publication US20220313728A1 (priority 2021, published 2022).
